The subject of data set [1] is 6-hydroxydopamine-treated young rats. Nature of the data set: Tic/Tourette like symptoms in 6-hydroxydopamine-treated young rats. Format: in vivo, rat. Here is the method: Methods: 6-HODA was injected into the left medial forebrain bundle of a rat to induce a unilateral lesion of dopaminergic neurons, followed by repeated oral administration of L-DOPA at 20 mg/kg twice daily for 2 weeks to make a rat model of tic-like symptoms.
Tic-like, abnormal involuntary movements were observed after day 3 during repetitive treatment with L-DOPA. Two subtypes of involuntary movements were classified as axial (lateral torsion of the head, neck and trunk towards the side contralateral to the lesion, including swing of the head) and forelimb (abnormal movements contralateral to the lesion, including kicking movements of the forelimb).
The severity of these movements was assigned a score from 0 to 4 to each movement as follows.
(score 0) no deviation of head
(score 1) lateral deviation of head: […]
(score 2) lateral deviation of head: more than 30°, and 60° or less
(score 3) torsion of head and upper trunk: more than 60°, and 90° or less
(score 4) torsion of head and trunk: more than 90°
(score 0) no movements of both distal and proximal forelimbs
(score 1) tiny oscillatory movements of the distal forelimb
(score 2) movements of low amplitude but causing visible translocation of both distal and proximal forelimbs
(score 3) translocation of the whole limb with visible contraction of shoulder muscles
(score 4) vigorous limb and shoulder movements of maximal amplitude
Compound (I) was repeatedly administered orally to 6-HODA treated rats at 1 mg/kg for 23 days, and Tic-like, abnormal involuntary movements were observed every 10 minutes for 3 hours, each time for one minute.
Peak score was obtained by adding the peak score for forelimb to that for axial (Data are expressed as mean±standard deviation in the following Table 1). Peak time means the time after the first administration when peak score was score observed.

A further data set has as its system dd-strain male mice. Nature of the data set: Acute toxicity test. Type of data set: in vivo. The settings on record: oral administration, mortality seven days after administration. An excerpt: Compound (I) was orally or intraperitoneally administered to groups of dd-strain male mice weighing 20±1 g, each group consisting of three mice.
A further data set relates to young rats. Nature of the data set: Acquisition of a delayed alternation task in young rats. Format: in vivo, rat. Particulars: for Choice reaction times per session (mean ± s.e.m.) / Simple reaction times per session (mean ± s.e.m.): 0.3 mg/kg p.o. -60 min. How it is done:
The following experiment was carried out according to a method described in Drug Dev. Res., 35, p. 83-95 (1996) with a slight modification. Methods: Male Rj: Wistar (Han) rats were used for the experiments. Before being tested, the rats were given the standard diet each day. Several 45 mg food pellets (these were also used in the delayed alternation sessions described below) were also given them to habituate them to this novel food.
The aim of this phase is to train rats, on the presentation of a single centralized retractable lever, to press on it to receive a food pellet.
The rats were subjected to 10 lever-pressing acquisition sessions in the experimental chambers according to a fixed ratio (FR1) schedule of reinforcement. Reinforcement consists of food pellets (45 mg) delivered after each lever-press. Each daily session lasts 15 minutes. All rats received an intraperitoneal administration of physiological saline 30 minutes before each session. During the first 7 sessions, the Skinner boxes were equipped with only one fixed lever situated centrally above the food receptacle, to avoid spatial preference for the right or the left side of the experimental panel. After the 7th lever-pressing session, the boxes were equipped with two retractable levers located on either side of the food receptacle. The rats were then subjected to 3 consecutive sessions in which the left or the right lever was pseudo-randomly presented every 5 seconds. At the end of this phase 80 to 100% of the rats acquired the lever press-response. […] If some rats were close to establishing steady lever-pressing behavior they were given extra training with the aim of attaining at least 10 rats per group. Rats were assigned to treatment groups matched on the basis of their performance.
Subsequent to lever-press acquisition sessions, all rats were subjected to delayed alternation sessions. The test was conducted for 5 days. During this phase, the boxes were equipped with two retractable levers on each side of the food distributor. Each session consisted of 35 successive trials every 10 seconds. In each trial, the rat was first presented with one lever (left or right). When the rat pressed on the lever, the rat was given a food pellet, the lever was retracted and 5 seconds later two levers were presented. The rat had to learn to press on the lever opposite to that previously presented to gain a food pellet (non-matching to sample).
Compound (I) was suspended in 0.5% methylcellulose in distilled water and administered orally 60 minutes before each session.
The effect of Compound (I) was evaluated by measuring simple reaction time, which means the reaction time to each one-lever presentation, and choice reaction time, which means the reaction time to each two-lever presentation.

For data set [2], the system named is 6-hydroxydopamine-treated neonatal rats. The data set can be described thus: Locomotor activity in 6-hydroxydopamine-treated neonatal rats. Type of data set: in vivo, rat. Here is the method:
Methods: Female neonatal SD rats were used for the experiments. 100 μg 6-Hydroxydopamine (6-HODA) was dissolved in a 0.1% solution of ascorbic acid in saline, and the obtained solution or 0.1% ascorbic acid in saline (control) was injected first at 3 days of age into the left lateral ventricle of the rat and secondly at 6 days of age into the right lateral ventricle of the rat. At 30-37 days, locomotor activity was measured by placing the rat in a transparent acrylic box (50×50×50 cm) 60 minutes after the drug administration using digital counters with infrared sensors (Scanet MV-10MT; Toyo Sangyo Co. Ltd., Toyama, Japan).
Compound (I) was suspended in a 0.3% aqueous Tween 80 solution, and administered orally to 6-HODA treated rats.

Setting [3] is: 1 mg/kg orally, compared with before administration.
The mark [4] stands for this setting: 0.3 mg/kg orally, compared with vehicle control rats.

One compound from patent US20090023755A1, “USE OF ISTRADEFYLLINE FOR TREATING BEHAVIORAL DISORDERS” (KYOWA HAKKO KOGYO CO., LTD., priority 2002, published 2009) can be followed below.

Each structure is given as a SMILES string.

As for `CCn1c(=O)c2c(nc(/C=C/c3ccc(OC)c(OC)c3)n2C)n(CC)c1=O` [Compound (I), (E)-8-(3,4-dimethoxystyryl)-1,3-diethyl-7-methylxanthine], the peak score entry in data set [1] (setting [3]) was “decreased”; in data set [1] (L-DOPA + compound 1 mg/kg p.o., Day 1, n = 6, mean ± standard deviation, forelimb + axial), 5.6 ± 1.4; in data set [1] (L-DOPA + compound 1 mg/kg p.o., Day 9, n = 6, mean ± standard deviation, forelimb + axial), 4.4 ± 1.6; in data set [1] (L-DOPA + compound 1 mg/kg p.o., Day 23, n = 6, mean ± standard deviation, forelimb + axial) it was 1.6 ± 0.6. Also, the peak time entry in data set [1] (setting [3]) was “decreased”; in data set [1] (L-DOPA + compound 1 mg/kg p.o., Day 1), 30 min; in data set [1] (L-DOPA + compound 1 mg/kg p.o., Day 9), 40 min; in data set [1] (L-DOPA + compound 1 mg/kg p.o., Day 23), 20 min. The “minimum lethal dose (MLD)” value in the data set on dd-strain male mice was “greater than 1000 mg/kg”. The choice reaction times entry in the data set on young rats (setting [4]) was “significantly decreased”. Also, the simple reaction times result in the data set with young rats (setting [4]) is “significantly decreased”. Besides, the “Choice reaction times per session (mean ± s.e.m.)” value in the data set on young rats (session S1) is 1.71 ± 0.13 s; in the data set with young rats (session S2), 1.52 ± 0.10 s; in the data set on young rats (session S3), 1.22 ± 0.12 s; in the data set on young rats (session S4), 1.13 ± 0.18 s; with young rats (session S5) it was 0.92 ± 0.09 s. The “Simple reaction times per session (mean ± s.e.m.)” value in the data set with young rats (session S1) was 3.16 ± 0.24 s; in the data set with young rats (session S2) it was 2.49 ± 0.28 s; with young rats (session S3), 1.63 ± 0.20 s; in the data set on young rats (session S4) it was 1.73 ± 0.21 s; with young rats (session S5), 1.33 ± 0.11 s. The locomotor activity result was “decreased locomotor activities” in data set [2] (6-HODA treated rats, 1.25 mg/kg orally, measured 60 minutes after administration); “decreased locomotor activities” in data set [2] (6-HODA treated rats, 5 mg/kg orally, measured 60 minutes after administration); “increased locomotor activities” in data set [2] (control rats treated only with 0.1% ascorbic acid in saline (vehicle), oral).
